# Measured values: ChEMBL document CHEMBL1201862, “PubChem BioAssay data set” (2004)
# Calls of active or inactive are those of the source.
# Key:
# [1] = A549 cell cytotoxicity, dose response, cytotoxicity control, plate reader, cherry-pick, antagonist series (AID 743412); assay type: functional, cell-based
# cells [2] = assay type: functional, cell-based
# cells [3] = assay type: functional, cell-based; remark: listed apart in the source
# Leucine aminopeptidase = biological target: T1, Leucine aminopeptidase (Plasmodium falciparum 3D7, UniProt Q8IL11); experiment: P. falciparum M17LAP inhibitors, primary screen, biochemical, fluorogenic H-Leu-NHMec substrate, 1536-well (AID 1619); assay type: functional
# T1 sequence (Q8IL11 whole entry): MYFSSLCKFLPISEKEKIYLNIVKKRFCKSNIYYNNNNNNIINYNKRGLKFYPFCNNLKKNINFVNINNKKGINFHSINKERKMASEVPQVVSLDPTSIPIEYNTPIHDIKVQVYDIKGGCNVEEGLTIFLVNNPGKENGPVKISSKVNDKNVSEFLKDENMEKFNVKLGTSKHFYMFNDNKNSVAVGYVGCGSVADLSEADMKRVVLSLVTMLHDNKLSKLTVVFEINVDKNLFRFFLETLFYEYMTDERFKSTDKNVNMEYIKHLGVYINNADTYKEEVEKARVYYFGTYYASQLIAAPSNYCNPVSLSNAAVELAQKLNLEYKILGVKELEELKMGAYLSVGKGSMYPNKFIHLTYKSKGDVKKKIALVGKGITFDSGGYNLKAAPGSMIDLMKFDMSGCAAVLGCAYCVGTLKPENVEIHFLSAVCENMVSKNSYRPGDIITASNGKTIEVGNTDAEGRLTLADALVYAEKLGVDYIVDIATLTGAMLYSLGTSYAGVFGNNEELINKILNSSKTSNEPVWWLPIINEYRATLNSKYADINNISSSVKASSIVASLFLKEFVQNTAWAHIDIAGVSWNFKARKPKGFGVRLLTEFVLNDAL
# Cytochrome P450 3A4 = Cytochrome P450 3A4 (Homo sapiens, UniProt P08684);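 further: CYP3A4 tested as one member of a cytochrome P450 panel screen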
# Cytochrome P450 3A4, sequence (P08684 whole entry): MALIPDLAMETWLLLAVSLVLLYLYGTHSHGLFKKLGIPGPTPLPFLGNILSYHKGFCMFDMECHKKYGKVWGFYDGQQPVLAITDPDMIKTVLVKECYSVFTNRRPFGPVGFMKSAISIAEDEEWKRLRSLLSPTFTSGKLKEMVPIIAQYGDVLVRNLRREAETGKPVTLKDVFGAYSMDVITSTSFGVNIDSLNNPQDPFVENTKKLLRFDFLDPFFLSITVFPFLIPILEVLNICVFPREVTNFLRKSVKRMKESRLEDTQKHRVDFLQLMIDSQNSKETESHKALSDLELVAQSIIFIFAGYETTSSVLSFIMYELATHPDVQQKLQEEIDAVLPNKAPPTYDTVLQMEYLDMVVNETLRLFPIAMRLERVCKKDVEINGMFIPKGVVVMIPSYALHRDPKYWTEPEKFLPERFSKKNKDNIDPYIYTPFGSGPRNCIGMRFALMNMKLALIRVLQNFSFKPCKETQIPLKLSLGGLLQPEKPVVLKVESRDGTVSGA
# [4] = biological target: T2, Short transient receptor potential channel 4 (Mus musculus, UniProt Q9QUQ5); experiment: mouse TRPC4 channel inhibitors, dose response, cell-based, HEK293 TRPC4/mu-opioid, Fluo-4 calcium (AID 434942); assay type: functional;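 further: potency of inhibitors blocking the TRPC4 calcium response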
# T2 sequence (Q9QUQ5 whole entry): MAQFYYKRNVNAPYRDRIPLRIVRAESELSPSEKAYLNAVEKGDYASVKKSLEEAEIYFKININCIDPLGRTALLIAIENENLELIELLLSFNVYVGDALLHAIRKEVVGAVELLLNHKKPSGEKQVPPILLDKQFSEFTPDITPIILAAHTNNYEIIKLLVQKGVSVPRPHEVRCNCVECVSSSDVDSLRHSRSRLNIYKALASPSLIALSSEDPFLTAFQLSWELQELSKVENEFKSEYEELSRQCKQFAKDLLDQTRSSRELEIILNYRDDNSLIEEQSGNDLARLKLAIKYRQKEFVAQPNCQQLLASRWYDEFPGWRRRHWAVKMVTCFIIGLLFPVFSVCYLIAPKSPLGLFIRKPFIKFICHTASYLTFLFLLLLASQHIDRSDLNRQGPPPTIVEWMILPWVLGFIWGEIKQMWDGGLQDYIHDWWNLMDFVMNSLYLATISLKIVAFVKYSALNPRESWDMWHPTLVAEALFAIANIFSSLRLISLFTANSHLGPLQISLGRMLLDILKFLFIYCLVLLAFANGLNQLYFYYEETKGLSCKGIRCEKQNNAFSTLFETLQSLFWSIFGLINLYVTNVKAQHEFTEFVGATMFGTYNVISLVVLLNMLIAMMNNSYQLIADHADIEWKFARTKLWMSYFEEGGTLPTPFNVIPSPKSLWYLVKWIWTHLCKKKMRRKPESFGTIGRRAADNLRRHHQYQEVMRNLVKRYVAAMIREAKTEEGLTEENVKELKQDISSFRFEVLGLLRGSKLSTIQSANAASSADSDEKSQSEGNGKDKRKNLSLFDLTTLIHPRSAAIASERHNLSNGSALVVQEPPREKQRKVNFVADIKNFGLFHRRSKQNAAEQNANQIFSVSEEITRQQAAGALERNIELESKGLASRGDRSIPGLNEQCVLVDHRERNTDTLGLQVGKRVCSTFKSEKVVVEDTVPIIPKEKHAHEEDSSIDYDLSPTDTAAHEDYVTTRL
# [5] = biological target: T3, Histone-lysine N-methyltransferase NSD2 (Homo sapiens, UniProt O96028); assay type: biochemical
# T3 sequence (O96028 whole entry): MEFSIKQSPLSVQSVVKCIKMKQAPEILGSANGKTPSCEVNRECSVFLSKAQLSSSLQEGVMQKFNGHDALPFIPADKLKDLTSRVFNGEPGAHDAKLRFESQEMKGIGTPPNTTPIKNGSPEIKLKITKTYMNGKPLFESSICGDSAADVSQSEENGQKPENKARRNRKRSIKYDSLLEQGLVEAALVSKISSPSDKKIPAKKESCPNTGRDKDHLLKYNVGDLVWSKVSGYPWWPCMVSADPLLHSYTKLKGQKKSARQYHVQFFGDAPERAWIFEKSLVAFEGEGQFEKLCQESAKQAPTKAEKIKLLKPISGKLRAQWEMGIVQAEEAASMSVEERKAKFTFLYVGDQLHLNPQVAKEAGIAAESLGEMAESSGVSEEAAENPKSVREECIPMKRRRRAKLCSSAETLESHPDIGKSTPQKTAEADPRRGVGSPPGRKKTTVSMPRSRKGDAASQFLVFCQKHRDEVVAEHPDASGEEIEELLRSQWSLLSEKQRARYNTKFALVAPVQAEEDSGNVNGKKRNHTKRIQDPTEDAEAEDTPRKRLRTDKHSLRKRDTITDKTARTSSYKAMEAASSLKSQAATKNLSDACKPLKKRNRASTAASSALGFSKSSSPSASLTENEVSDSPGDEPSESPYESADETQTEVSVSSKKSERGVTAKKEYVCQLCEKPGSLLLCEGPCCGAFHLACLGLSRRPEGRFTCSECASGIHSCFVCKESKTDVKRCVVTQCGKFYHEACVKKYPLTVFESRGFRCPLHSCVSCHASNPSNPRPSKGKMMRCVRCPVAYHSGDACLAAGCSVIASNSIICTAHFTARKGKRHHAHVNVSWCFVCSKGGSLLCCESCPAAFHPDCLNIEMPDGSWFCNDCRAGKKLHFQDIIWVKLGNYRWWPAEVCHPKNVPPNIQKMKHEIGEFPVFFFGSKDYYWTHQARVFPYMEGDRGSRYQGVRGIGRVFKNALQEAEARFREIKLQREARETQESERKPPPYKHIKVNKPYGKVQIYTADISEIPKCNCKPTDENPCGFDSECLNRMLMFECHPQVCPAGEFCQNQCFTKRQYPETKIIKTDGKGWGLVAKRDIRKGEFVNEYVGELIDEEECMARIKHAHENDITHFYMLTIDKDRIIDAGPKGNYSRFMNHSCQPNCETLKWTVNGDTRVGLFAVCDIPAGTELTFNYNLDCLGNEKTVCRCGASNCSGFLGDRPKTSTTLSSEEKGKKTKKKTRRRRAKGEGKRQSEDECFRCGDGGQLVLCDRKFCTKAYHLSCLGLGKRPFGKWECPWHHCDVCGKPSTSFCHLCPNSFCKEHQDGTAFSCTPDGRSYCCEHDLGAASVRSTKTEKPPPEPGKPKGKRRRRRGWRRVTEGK
# Streptokinase A = biological target: T4, Streptokinase A (Streptococcus pyogenes serotype M1, UniProt P10520); experiment: S. pyogenes streptokinase expression inhibitors, potency, dose response, plasminogen activation absorbance, OD405 (AID 1914); assay type: functional, Streptococcus pyogenes M1 GAS;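 further: secreted streptokinase activity via plasminogen activation per viability signal from cell pellet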
# T4 sequence (P10520 whole entry): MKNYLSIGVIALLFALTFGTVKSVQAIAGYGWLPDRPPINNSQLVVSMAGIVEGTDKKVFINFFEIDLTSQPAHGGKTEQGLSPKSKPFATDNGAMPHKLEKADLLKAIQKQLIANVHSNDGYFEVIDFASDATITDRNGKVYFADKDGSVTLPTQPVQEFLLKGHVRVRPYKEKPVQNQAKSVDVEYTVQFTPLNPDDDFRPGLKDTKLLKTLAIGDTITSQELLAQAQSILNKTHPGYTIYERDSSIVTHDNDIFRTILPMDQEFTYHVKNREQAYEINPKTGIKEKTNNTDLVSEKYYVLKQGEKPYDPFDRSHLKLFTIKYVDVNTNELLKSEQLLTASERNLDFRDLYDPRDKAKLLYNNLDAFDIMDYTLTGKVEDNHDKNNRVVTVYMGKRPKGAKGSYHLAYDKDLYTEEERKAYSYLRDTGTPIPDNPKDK
# [6] = inhibitors of intracellular T. cruzi replication, confirmation, NIH3T3 host cells, beta-gal luminescence (AID 2044); assay type: functional, cell-based;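 further: intracellular parasites grown in NIH/3T3 mouse fibroblasts as host cells; luminescent beta-galactosidase reporter signal from transgenic T. cruzi replicating inside host cells; inhibitors lower the luminescence signal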
# [7] = cytotoxicity in HEK-293T cells, dose response, cytotoxicity control for TCR NF-kB inhibitor project, luminescence, T-cell screen hits (AID 489026); assay type: functional, cell-based;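 further: cells exposed to compound about 14 hours before the viability readout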
# [8] = cytotoxicity toward NIH3T3 fibroblasts, dose response, counter-screen, cell-based, ATP luminescence, mouse fibroblasts (AID 2010); assay type: functional;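 further: cells exposed to compound for about 90 hours before reading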
# Cytochrome P450 2C19 = Cytochrome P450 2C19 (Homo sapiens, UniProt P33261); experiment: Cytochrome panel assay with activity outcomes. Panel member name: p450-cyp2c19 Compounds with AC50 equal or less than 10 uM are considered active; assay type: functional; conditions: read-out: AC50
# Cytochrome P450 2C19, sequence (P33261 whole entry): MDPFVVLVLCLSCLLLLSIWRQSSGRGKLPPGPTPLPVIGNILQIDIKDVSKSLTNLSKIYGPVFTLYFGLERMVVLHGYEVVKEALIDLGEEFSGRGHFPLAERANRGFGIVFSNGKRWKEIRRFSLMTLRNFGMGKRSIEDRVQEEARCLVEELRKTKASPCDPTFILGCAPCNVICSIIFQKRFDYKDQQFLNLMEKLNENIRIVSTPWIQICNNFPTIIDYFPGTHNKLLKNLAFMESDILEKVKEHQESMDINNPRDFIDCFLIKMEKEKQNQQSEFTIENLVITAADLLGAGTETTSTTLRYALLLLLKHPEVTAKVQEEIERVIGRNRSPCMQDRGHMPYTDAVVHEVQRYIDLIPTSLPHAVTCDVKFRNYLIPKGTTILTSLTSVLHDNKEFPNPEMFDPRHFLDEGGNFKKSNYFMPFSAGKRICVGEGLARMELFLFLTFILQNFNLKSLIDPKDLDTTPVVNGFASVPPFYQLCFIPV
# Cytochrome P450 1A2 = biological target: T5, Cytochrome P450 1A2 (Homo sapiens, UniProt P05177);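 further: PubChem cytochrome P450 panel assay, CYP1A2 panel member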
# T5 sequence (P05177 whole entry): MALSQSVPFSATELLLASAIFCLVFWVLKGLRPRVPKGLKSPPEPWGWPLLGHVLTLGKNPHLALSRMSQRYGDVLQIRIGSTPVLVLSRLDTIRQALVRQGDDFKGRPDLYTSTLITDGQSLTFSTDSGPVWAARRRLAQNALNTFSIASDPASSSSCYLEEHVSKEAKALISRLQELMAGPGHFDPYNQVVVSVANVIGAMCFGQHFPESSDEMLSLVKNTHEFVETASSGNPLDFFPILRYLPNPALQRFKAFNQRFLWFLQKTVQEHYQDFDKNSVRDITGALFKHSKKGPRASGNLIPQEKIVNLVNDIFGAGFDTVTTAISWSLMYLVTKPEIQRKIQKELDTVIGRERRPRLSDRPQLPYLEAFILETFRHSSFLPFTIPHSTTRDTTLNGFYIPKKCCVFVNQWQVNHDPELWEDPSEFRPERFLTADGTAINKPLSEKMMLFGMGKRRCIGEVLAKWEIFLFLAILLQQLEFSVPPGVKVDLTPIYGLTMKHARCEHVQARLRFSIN
# [9] = biological target: Glyceraldehyde-3-phosphate dehydrogenase (Homo sapiens, UniProt P04406)
# Glyceraldehyde-3-phosphate dehydrogenase, sequence (P04406 whole entry): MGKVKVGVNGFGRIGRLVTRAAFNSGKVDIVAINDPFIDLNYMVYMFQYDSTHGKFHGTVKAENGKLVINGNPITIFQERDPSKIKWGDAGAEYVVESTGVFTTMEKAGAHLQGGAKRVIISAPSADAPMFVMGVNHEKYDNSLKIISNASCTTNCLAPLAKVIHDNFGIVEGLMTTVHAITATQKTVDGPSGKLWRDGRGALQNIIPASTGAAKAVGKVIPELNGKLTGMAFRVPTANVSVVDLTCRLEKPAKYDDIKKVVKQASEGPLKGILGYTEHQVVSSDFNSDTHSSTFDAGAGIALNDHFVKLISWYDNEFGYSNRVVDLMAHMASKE
# [10] = biological target: T6, Alkaline phosphatase, tissue-nonspecific isozyme (Homo sapiens, UniProt P05186); experiment: human TNAP enzyme inhibitors, SAR follow-up, biochemical, luminescent, dose response (AID 1056)
# T6 sequence (P05186 whole entry): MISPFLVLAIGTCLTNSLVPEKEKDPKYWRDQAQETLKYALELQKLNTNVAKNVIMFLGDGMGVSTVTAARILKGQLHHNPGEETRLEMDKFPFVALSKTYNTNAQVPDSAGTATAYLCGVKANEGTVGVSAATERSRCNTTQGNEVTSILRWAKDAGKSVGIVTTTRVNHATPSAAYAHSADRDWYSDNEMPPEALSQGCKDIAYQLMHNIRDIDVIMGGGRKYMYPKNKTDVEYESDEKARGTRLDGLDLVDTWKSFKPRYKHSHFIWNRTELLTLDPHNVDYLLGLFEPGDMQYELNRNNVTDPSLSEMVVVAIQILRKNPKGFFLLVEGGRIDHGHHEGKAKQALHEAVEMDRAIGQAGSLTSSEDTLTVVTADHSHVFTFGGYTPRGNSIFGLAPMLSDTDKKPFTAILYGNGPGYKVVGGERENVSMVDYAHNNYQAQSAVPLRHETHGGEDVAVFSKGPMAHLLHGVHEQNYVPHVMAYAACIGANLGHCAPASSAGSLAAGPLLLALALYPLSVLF
smiles,measurement,setting,value
C[C@@H]1CN([C@@H](C)CO)S(=O)(=O)c2ccc(C3=CCCC3)cc2O[C@H]1CN(C)C(=O)c1ccccc1,AC50,[1],38.9 µM (active)
CC(C)N(C(C)C)S(=O)(=O)c1ccc(N2CCc3ccccc3C2)nc1,EC50,cells [2],> 350 µM (not active)
same,EC50,cells [3],> 350 µM (not active)
CC1=C(C)CC(C(=O)Nc2nc(-c3ccc(C)cc3C)c(C)s2)C(C(=O)O)C1 (stereo not given),IC50,Leucine aminopeptidase,3.71 µM (active)
O=C(CCNC(=O)Cn1ccc2ccccc2c1=O)NCCCN1CCN(c2ccc(F)cc2)CC1,AC50,Cytochrome P450 3A4,inconclusive
COc1ccc(NC(=O)N2CCC3(CC2)CCN(C(=O)c2cccn2C)CC3)cc1,AC50,Cytochrome P450 3A4,inconclusive
COc1ccc(Cl)c(OC)c1C(=O)NC(=O)Nc1c(F)cc(F)cc1F,EC50,cells [2],> 350 µM (not active)
same,EC50,cells [3],> 350 µM (not active)
CN(C(=O)CSc1nc(-c2ccc(C(C)(C)C)cc2)c(C#N)c(=O)[nH]1)C1CCCCC1,EC50,[4],9.44 µM (active)
same,AC50,[5],12.6 µM (active)
same,EC50,Streptokinase A,> 150 µM (not active)
Cc1cc(C(=O)OCC(=O)N2C(C)CCCC2C)c(C)o1 (stereo not given),IC50,Leucine aminopeptidase,14.3 µM (active)
CN1/C(=C\C(=O)C[n+]2ccc3ccccc3c2)C(C)(C)c2ccccc21,EC50,[6],0.505 µM (active)
same,IC50,[7],> 80 µM (inactive)
same,EC50,[4],5.31 µM (active)
same,EC50,[8],> 60 µM (not active)
O=C(Oc1ccccc1)N1CCC2(CC1)CN(c1ccccc1)C2,AC50,Cytochrome P450 2C19,15.8 µM (inconclusive)
same,AC50,Cytochrome P450 1A2,15.8 µM (inconclusive)
same,AC50,Cytochrome P450 3A4,inconclusive
COC(=O)C1Nc2cc(C(F)(F)F)ccc2S(=O)(=O)N1 (stereo not given),IC50,[9],> 100 µM (not active)
CCc1ccc(-c2cc(C(=O)O)[nH]n2)cc1,IC50,[9],> 100 µM (not active)
same,IC50,[10],17.6 µM (active)
COc1ccc(N2CCN(C(=O)C3COc4ccccc4O3)CC2)cc1 (stereo not given),EC50,cells [2],> 350 µM (not active)
same,EC50,cells [3],> 350 µM (not active)
CC(C)Nc1ccc(C(CC(N)=O)NC(=O)c2ccc(Br)cc2)cc1[N+](=O)[O-] (stereo not given),IC50,[7],> 80 µM (inactive)
